In patent publication US6328728A, “Composition and method for enhancing electrotransport agent delivery” (Alza Corporation, priority 1997, dated 2001):
Read-outs that look alike come from different tables or passages of the source.

Assay type: in vivo, male hairless guinea pigs
Conditions: for average plasma calcitonin concentration (given in flux units): second hour/steady state
Method: This study was undertaken to assess the effect on the transdermal delivery rate by electrotransport of an agent such as calcitonin (sCT), a protein with an affinity for the surfactant Tween 20 at pH 6.5, by delivering the agent in the presence of Tween 20 from a donor gel.
A customized electrotransport system, and its reservoir matrices and contents were prepared as described below. A low level current of 100 μA cm^-2 was maintained throughout each test by a self contained power module (ALZA Corp., Palo Alto, Calif., Code #84166). The peptide agent salmon calcitonin (sCT, UCB-Bioproducts S.A., Chemin du Foriest, Allend, Belgium) was chosen for delivery by electrotransport. The protein calcitonin has a positive net charge at pH 6.5 and was therefore anodically driven from the positive electrode toward the negative electrode. Three gels were prepared for use with the electrotransport system. The anode gel provided the proper environment for the anodic electrochemical reaction. It was comprised of Bio-Rad resin beads (100-200 mesh, chloride form, Bio-Rad Laboratories, Richmond, Calif.) in 48 mM histidine buffer, pH 6.5, and 0.5% hydroxyethyl cellulose (HEC). The cathode gel provided the proper environment for the cathodic electrochemical reaction and completed the electrical circuit. It was comprised of an L-histidine buffered HEC gel, pH 2.9, and sodium chloride. The donor gel occupied a surface area of 2 cm^2 and was separated from the anode compartment by a 1 Kdalton molecular weight (MW) cut-off membrane (Millipore Corp., Bedford, Mass.). The donor gel was prepared by first mixing 48 mM histidine buffer, pH 6.5, with HEC, vortexing vigorously to completely dissolve the HEC and to ensure homogeneous polymerization of the gel. After a few minutes, either a 10% solution of Tween 20 (Pierce, Rockford, Ill.) or water was added in conjunction with a stock solution of calcitonin and gently mixed into the gel. The amounts of each component were calculated to produce a nominal concentration of 1 mM sCT in a 1% HEC gel of 1 mL volume (with or without Tween 20). The gel was slowly rotated and allowed to equilibrate overnight at 4° C. An aliquot of 275-295 μL of donor gel was weighed and placed in the donor reservoir of the electrotransport system immediately prior to beginning each experiment. The 3 gels were contained in 2 separate structures, with each gel compartment being a punched double-sided adhesive foam ring 0.081 cm (0.032") thick with an outside diameter of 3.2 cm (11/4") and an inside diameter of 1.6 cm (5/8"). The compartment ring containing the cathode gel was open on the skin side. The back side was covered by an electrode sandwich consisting of a 3.2 cm (11/4") diameter release liner cover, a 2.2 cm (13/15") diameter punch of electrical conducting adhesive tape, a 11 cm (41/2") silver wire that was slightly coiled at one end, with the coil placed at the center of the electrode leading out, and a 1.6 cm (5/8") diameter punch of AgCl PIB electrode film. The donor gel compartment was also open on the skin side, but the back side was covered by a 2.2 cm (13/15") diameter punch of a 1,000 Dalton MW cut-off membrane. The anode compartment was then stacked on top of the donor compartment and covered with an electrode sandwich identical to the cathode, except that the AgCl PIB electrode film was replaced with a 0.025 mm thick silver (Ag) foil (Johnson Mathey Catalog Co., Ward Hill, Mass.). Both the cathode and the donor compartments also included adhesive washers (In Vivo Metric, Healdsberg, Calif.) with an outside diameter of 3.2 cm (11/4") and an inside diameter of 1.6 cm (5/8") between the skin and the bottom of the compartment to improve skin adhesion. All components of the system were punched out in advance and assembled on the day of the experiment. […]

Salmon Calcitonin [reference compound]
time to approach steady state calcitonin levels (active current groups (1) and (2)): By the second hour | average plasma calcitonin concentration (given in flux units) (active electrotransport 100 μA cm^-2, 1 mM sCT gel pH 6.5, with Tween 20 (group 1)): 5.4 μg sCT cm^-2 h^-1 | average plasma calcitonin concentration (given in flux units) (active electrotransport 100 μA cm^-2, 1 mM sCT gel pH 6.5, without Tween 20 (group 2)): 1.2 μg sCT cm^-2 h^-1 | calcitonin plasma concentration, time course (active electrotransport groups (1) and (2), first hour): increased rapidly | average plasma calcitonin concentration with Tween 20 relative to without Tween 20 (active electrotransport, group 1 vs. group 2, second hour): 3 fold | calcitonin plasma profiles, group (1) with Tween 20 vs group (2) without (statistical comparison) (active electrotransport, p<0.05, ANOVA): significantly different from one another | calcitonin plasma levels, passive systems (passive delivery (control group 3, with and without Tween 20), first 4 hrs.): continued to lack significant calcitonin plasma levels | calcitonin plasma levels, passive systems (passive delivery (no current), first hour): low and remained at or slightly above the limit of detection
